Measurements: US20080311656A1, “Meiosis arrest in oocytes in vitro” (Novo Nordisk A/S, priority 2002, published 2008)
Entries after “also recorded” stand apart in the source; their conditions may differ.

Experiments:
Human oocytes (COCs) [1] = test: Meiosis arrest (nuclear maturation stage GV/GVBD/PB) of COCs cultured with DDMP; type: cell-based; conditions: for oocytes still arrested at the GV-stage: 72 hours in DDMP
Protocol: (§1) Patients included in this study were undergoing fertility treatment and were primed with variable doses of gonadotropins while being carefully monitored using serum hormone and vaginal ultrasound monitoring (Human Reproduction 7 (1992), 49 et seq.). Collection of oocytes cumulus complexes (COCs) from different follicle sizes was performed as follows: 1°) during laparoscopic surgery, 2°) aspirated from patients with stimulated ovaries undergoing follicle reduction before intrauterine insemination (to avoid multiple gestation due to multiple ovulation) (Albano et al, 2001) or 3°) during ovum pick up after having aspirated the larger follicles (>15 mm) destinated for IVF treatment (Human Reproduction 7 (1992), 49 et seq.). Basically, these aspirations yielded two types of COC: a first group that had never been exposed to LH activity (pre-hCG) and a second group of follicles 36 h after an exposure to hCG (injected) or endogenous LH (spontaneous LH peak). When possible, follicle diameters were recorded by vaginal ultrasound measurement. COCs used in this study were retrieved from follicles with diameters between 6 and 14 mm.
Human oocytes aspiration was performed by ultrasound-guided transvaginal follicle aspiration using a single lumen needle (Cook, K-OPS-1230-VUB, Switzerland AG) after paracervical infiltration with a local anesthetic. The aspiration pressure used was reduced from the usual 100 mmHg for recovery of mature oocytes to 60 mmHg. Follicles were flushed using HEPES-buffered Earle's medium at least three times.
(§2) At the time of oocyte retrieval only the COCs classified as I or II were placed in culture.
Twenty-four hours later, oocyte stages were recorded and oocytes showing a clear polar body extrusion were removed from culture. After 48 hours, all oocytes were assessed and GV, GVBD and polar body extruded ones were recorded.
(§3) The basal medium used for oocyte culture was D-MEM (D-5280, Life Technologies, Merelbeke, Belgium) with 2 mM Glutamax-1, NaHCO3 (2 g/L) supplemented with 10 mIU/ml FSH (Gonal-F®, kindly donated by Ares Serono, Geneva, Switzerland), 100 ng/ml IGF-I (R&D, UK), 5 ng/ml insulin, 5 ng/ml selenium, 5 μg/ml transferrin (Life technologies, Merelbeke, Belgium) and 0.1% human serum albumin (CAF-DCF, Brussels, Belgium). 17β-E2 (Sigma, Bornem, Belgium) was diluted in ethanol and added to oil to reach a final concentration of 1 μg/ml in the 10 μl medium droplets underneath (this concentration was measured using specific radioimmunoassay). Microdroplets of 10 μl medium, were covered with 2 ml of oil. A refreshment of […] conditioned medium was performed each 24 hours. All cultures were carried out at 37° C. in humidified atmosphere in an incubator gassed with 5% CO2 in air.
(§4) DDMP was added at a 10 μM final concentration (0.1% DMSO). Directly after aspiration, single COCs were washed in flushing medium (D-MEM with HEPES) and placed into […] droplets under oil. COCs were randomised over two culture conditions: with and without DDMP. Oocytes cultured with DDMP for 24 hours, 48 hours and 72 hours were studied for reversal of meiosis arrest by washing out the inhibitor. Reversal of PDE 3 inhibition was performed by mechanical denudation of the remaining somatic cells and placing the oocytes in the conditioned medium for an additional 24-30 h.
(§5) Evaluation of cumulus morphology expansion in culture related to follicle treatment, resumption of maturation, kinetics of GVBD and polar body extrusion were analysed using the χ^2test and Fisher's exact test for comparison between control and DDMP treated groups. Statistical significance was considered when P<0.05.

[2] = tested on: cumulus-corona cells of COCs; test: Cumulus cell expansion (COC types I-IV) during culture in the presence of DDMP; type: cell-based, human
Protocol: as §1
The COCs were evaluated immediately after aspiration and after 24 hours and 48 hours culture and classified as follows: type (I), compact mass of 3-5 layers of granulosa cells; type (II), expanded distal layers of granulosa cells (cumulus), but a compact proximal granulosa cell layer; type (III), expanded distal (cumulus) and proximal (corona cells) layers of granulosa cells; and type (IV) partially denuded oocytes due to expanded granulosa cells.
as §2, §3, §4, §5

[3] = tested on: Human oocytes arrested at GV-stage; test: Reversal of meiosis arrest after washing out the inhibitor; type: cell-based
Protocol: as §4, with “Reversal of PDE 3 inhibition was performed by mechanical denudation of the remaining somatic cells and placing the oocytes in the conditioned medium for an additional 24-30 h.” left out
as §5

Human oocytes (COCs) [4] = test: Light and electron microscopy of oocytes arrested by DDMP; type: cell-based
Protocol: During evaluation at 24 hours and 48 hours culture, part of the oocytes with and without DDMP were fixed for EM analysis.
A total of 48 oocytes (4 at time of retrieval, 21 after 24 hours, 20 after 48 hours and 3 after 72 hours culture) were fixed in glutaraldehyde 2.5% in cacodylate buffer at pH 7.3 for at least 2 hours at 4° C. at time 0 h, 24 hours and 48 hours of maturation. All oocytes were embedded individually. Afterwards, they were postfixed in OsO4 1% in H2O for 30 min, stained with uranyl acetate 2% in veronal buffer for 60 min, dehydrated through graded alcohols, embedded in SPURR (Taab; Bodson, Liège, Belgium) and left to polymerize overnight at 70° C.
Semithin sections of 0.5 μm and ultrathin sections of 75 nm were made at approximately 30 levels (range 15-35). The semithin sections were mounted on glass slides and stained with toluidine blue for light microscopical guidance. […]
In order to analyse the effect of PDE 3 inhibition on nuclear and cytoplasm organization, ultrastructural observation was performed at the different culture times in oocytes arrested or not by DDMP. The oocytes analyzed did originate from follicles with diameter between 8-12 mm.

[5] = tested on: polar body extruded oocytes; test: Confocal laser microscopy for microfilaments and chromosome analysis; type: cell-based, human
Protocol: For localization of microfilaments, 39 polar body extruded oocytes (25 oocytes 48 hours after maturation in control medium and 14 oocytes after inhibitor removal) were fixed with 2.5% glutaraldehyde in cacodylate buffer for at least 2 hours, washed with PBS/1% BSA, placed into 0.1% Triton X-100 for 5 min and rinsed again with PBS. Afterwards, oocytes were placed into Texas red-labeled phalloidin staining f-actin diluted 1:40 PBS for f-actin and Pico green 1:2000 PBS for DNA staining.

isolated oocytes = conditions: rodents; cited from earlier work
[6] = post-hCG COCs, 24 hours culture in DDMP 10 μM
[7] = pre-hCG COCs, 24 hours culture in DDMP 10 μM
[8] = inhibitor removal day 2 (48 hours in DDMP), post-hCG, 11 oocytes
[9] = inhibitor removal day 2 (48 hours in DDMP), pre-hCG, 11 oocytes
[10] = inhibitor removal day 3 (72 hours in DDMP), post-hCG, 10 oocytes
[11] = inhibitor removal day 3 (72 hours in DDMP), pre-hCG, 13 oocytes

Q: What does the source list for `COc1cc2cc(C3=NNC(=O)CC3C)sc2cc1OC` (stereo not shown) [DDMP, 4,5-dihydro-6-(5,6-dimethoxybenzo[b]thien-2-yl)-5-methyl-3(2H)-pyridazinone]?
A: time up to which nuclear arrest could be held on (Human oocytes (COCs) [1]; DDMP 10 μM): up to 72 hours; time for which resumption of meiosis was blocked / meiotic arrest in GV maintained (Human oocytes (COCs) [1]; DDMP 10 μM, COCs from antral follicles): at least 48 hours; oocytes remaining at GV-stage (Human oocytes (COCs) [1]; post-hCG COCs (n=42), 24 hours, DDMP 10 μM, control 22.5%): 92.9%; COCs classified type II at retrieval that remained arrested at the GV-stage (Human oocytes (COCs) [1]; post-hCG COCs of type II at retrieval, 48 hours culture with DDMP): 77.6%; oocytes that extruded a visible polar body (PB) (Human oocytes (COCs) [1]; post-hCG COCs, 24 hours, DDMP 10 μM, control 10.0%): 2.4%; oocytes at the GV-stage (Human oocytes (COCs) [1]; post-hCG COCs, 48 hours, DDMP 10 μM, control 6.0%): 83.3%; oocytes at GVBD (Human oocytes (COCs) [1]; post-hCG COCs, 48 hours, DDMP 10 μM, control 12.1%): 8.3%; oocytes at PB (Human oocytes (COCs) [1]; post-hCG COCs, 48 hours, DDMP 10 μM, control 81.8%): 5.6%; oocytes still arrested at the GV-stage (Human oocytes (COCs) [1]; post-hCG, 10 out of 15): 66.6%; oocytes remaining at GV-stage (Human oocytes (COCs) [1]; pre-hCG COCs (n=39), 24 hours, DDMP 10 μM, control 24.3%): all oocytes remained at GV-stage; oocytes at GVBD (Human oocytes (COCs) [1]; pre-hCG COCs, 48 hours, DDMP 10 μM, control 12.9%): 5.5%; oocytes remaining at GV-stage (Human oocytes (COCs) [1]; pre-hCG COCs, 48 hours, DDMP 10 μM, control 19.3%): 88.9%; oocytes at PB (Human oocytes (COCs) [1]; pre-hCG COCs, 48 hours, DDMP 10 μM, control 64.5%): 2.8%; oocytes still arrested at the GV-stage (Human oocytes (COCs) [1]; pre-hCG, 16 out of 19): 84.2%; influence on expansion and mucification pattern of COC / loss of coupling between somatic cells and oocyte ([2]; DDMP 10 μM versus control medium, before and during culture): not modified; also recorded: no influence; proportion of COCs classified type I ([2]; post-hCG COCs of the DDMP group, at retrieval (0 hour, baseline)): 48.8%; oocytes that had lost connection with cumulus cells (type IV) [2, 6]: 7.1%; proportion of COCs classified type I [2, 6]: 4.7%; proportion of COCs classified type II [2, 6]: 57.1%; proportion of COCs classified type III [2, 6]: 30.9%; oocytes that had lost connections with the somatic cells (type IV) ([2]; post-hCG COCs, 48 hours culture in DDMP 10 μM): 62.1%; proportion of COCs classified type I ([2]; pre-hCG COCs of the DDMP group, at retrieval (0 hour, baseline)): 74.4%; proportion of COCs classified type I [2, 7]: 25.6%; proportion of COCs classified type II [2, 7]: 56.4%; proportion of COCs classified type III [2, 7]: 15.4%; oocytes that had lost their connections with the cumulus cells (type IV) ([2]; pre-hCG COCs, 48 hours culture in DDMP 10 μM): 22.2%; number of oocytes that progressed to GVBD after inhibitor wash-out ([3]; 48 hours in DDMP, post-hCG, 11 oocytes, 24-30 h in control medium): 11; number of oocytes that progressed to GVBD after inhibitor wash-out ([3]; 48 hours in DDMP, pre-hCG, 11 oocytes, 24-30 h in control medium): 4; number of oocytes that progressed to GVBD after inhibitor wash-out ([3]; 72 hours in DDMP, pre-hCG, 13 oocytes, 24 to 30 hours in conditioned medium): 7; PB (%) 24-30 hours after DDMP removal [3, 8]: 54%; number of oocytes at GVBD (arrested at this stage) 24-30 hours after DDMP removal [3, 8]: 5; number of oocytes at PB 24-30 hours after DDMP removal [3, 8]: 6; PB (%) 24-30 hours after DDMP removal [3, 9]: 27%; number of oocytes at GV 24-30 hours after DDMP removal [3, 9]: 7; number of oocytes at GVBD (arrested at this stage) 24-30 hours after DDMP removal [3, 9]: 1; number of oocytes at PB 24-30 hours after DDMP removal [3, 9]: 3; PB (%) 24-30 hours after DDMP removal [3, 10]: 100%; number of oocytes at PB 24-30 hours after DDMP removal [3, 10]: 10; PB (%) 24-30 hours after DDMP removal [3, 11]: 46%; number of oocytes at GV 24-30 hours after DDMP removal [3, 11]: 6; number of oocytes at GVBD (arrested at this stage) 24-30 hours after DDMP removal [3, 11]: 1; number of oocytes at PB 24-30 hours after DDMP removal [3, 11]: 6; resumption of meiosis after inhibitor removal ([3]; oocytes arrested with DDMP 10 μM): capable of resuming meiosis within the normal time frame; ultrastructural morphological signs of oocyte degeneration (Human oocytes (COCs) [4]; DDMP 10 μM, at least 48 hours culture): without ultrastructural morphological signs of oocyte degeneration; morphological aspect of COC (degeneration) (Human oocytes (COCs) [4]; arrested in vitro for 72 hours in presence of DDMP (FIG. 11)): degenerative aspect; number of oocytes presenting the M II plate 24-30 hours after inhibitor removal ([5]; 3 out of 3 pre-hCG and 9 out of 11 post-hCG): Twelve; number of oocytes with nuclei forming a clump of chromosomes at place of metaphase plate ([5]; 24-30 hours after inhibitor removal): Two; M II oocytes with well-aligned chromosomes positioned perpendicular to the oolema ([5]; 24-30 hours after inhibitor removal, control 80.0%): 83.3%; reversibility of blocking effects (isolated oocytes): fully reversible
